Like-named read-outs stand apart in the source and are kept apart here.
Experiments:
[1] = system: balb/c 3T3 cells; test: Inhibitory action to EGF stimulated cell growth (3H-thymidine incorporation); type: cell-based; conditions: 16 hours + 8 hours 3H-thymidine
Description: A culture medium (hereinafter referred to as "CS DMEM") containing 10% of calf serum, which was prepared so that 2.5 x 10⁴ of fibroblasts (balb/c 3T3 cells) were contained in 0.5 ml, was added in a 24-well plate in an amount of 0.5 ml per well. After the fibroblasts were confluent in the state of a single layer, the culture medium was replaced with the same amount of 1% CS DMEM and the cells were incubated at 37°C for 12 hours in a humidified atmosphere of 95% air-5% CO₂. Then, 1 µg/25 µl/well of trans-(6)-shogaol and 5 ng/25 µl/well of EGF (supplied by Collaborative Research, Inc.) were added, and the cells were further incubated for 16 hours. Then, 0.5 µCi(1.85+10⁻¹⁶S⁻¹)/50 µl of ³H-thymidine was added and the cells were further incubated 8 hours. The culture medium was removed, and the cells were washed with a cold phosphate buffered saline. […] The radioactivity of ³H-thymidine included in the cells by this growth was measured, and the action of trans-(6)-shogaol to the growth of the cells was examined.
10% CS DMEM prepared so that 2.5 x 10⁴ of fibroblasts (balb/c 3T3 cells) were contained in 0.5 ml were added in a 24-well plate in an amount of 0.5 ml/well. […] The radioactivity of ³H-thymidine included in the cells by this growth was measured, and the function of cis-(6)-shogaol to the growth of the cells was examined.

[2] = Acute toxicity test; design: species or system mice; conditions: mouse, in vivo
Description: (§1) The acute toxicity test of cis-(6)-shogaol was carried out by using male mice of the ICR line.

[3] = target: T1, 5-lipoxygenase (Rattus norvegicus, UniProt P12527); test: 5-Lipoxygenase-inhibiting action (5-HETE formation, enzyme from RBL-1 cultured cells); type: biochemical; conditions: 5-lipoxygenase from RBL-1 cells, 10 µM arachidonic acid, 37°C 10 minutes; tested at 5, 1 or 0.5 µM
T1 construct: The supernatant was used as the standard enzyme of 5-lipoxygenase; endogenous in cells; host or cells: RBL-1 cultured cells, sonicated; 105,000 x G supernatant
T1 sequence (P12527 1-673): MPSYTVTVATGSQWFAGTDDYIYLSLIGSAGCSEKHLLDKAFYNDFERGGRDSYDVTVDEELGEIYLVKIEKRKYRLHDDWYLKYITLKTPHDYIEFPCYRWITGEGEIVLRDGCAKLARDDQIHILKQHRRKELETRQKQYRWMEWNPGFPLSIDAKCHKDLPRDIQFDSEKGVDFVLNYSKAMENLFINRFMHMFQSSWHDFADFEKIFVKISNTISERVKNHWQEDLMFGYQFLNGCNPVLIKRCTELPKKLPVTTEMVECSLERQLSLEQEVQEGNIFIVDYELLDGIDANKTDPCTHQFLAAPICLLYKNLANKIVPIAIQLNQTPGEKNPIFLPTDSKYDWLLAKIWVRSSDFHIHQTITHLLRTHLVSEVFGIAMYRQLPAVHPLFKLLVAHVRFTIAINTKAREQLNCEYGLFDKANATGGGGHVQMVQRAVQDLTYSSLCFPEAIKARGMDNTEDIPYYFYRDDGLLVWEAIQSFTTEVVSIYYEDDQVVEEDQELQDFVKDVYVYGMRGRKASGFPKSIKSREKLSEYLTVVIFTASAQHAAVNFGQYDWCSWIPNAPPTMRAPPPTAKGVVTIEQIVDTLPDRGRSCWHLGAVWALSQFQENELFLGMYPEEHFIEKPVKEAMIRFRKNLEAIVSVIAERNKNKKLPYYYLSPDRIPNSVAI
Description: RBL-1 cultured cells were suspended in a 50 mM phosphate buffer solution (pH 7.4) containing 1 mM EDTA and 10% ethylene glycol so that the cell concentration was 5 x 10⁶ per ml, and the cell suspension was subjected to an ultrasonic wave treatment. Then, centrifugal separation was carried out under 10,000 x G for 10 minutes and then under 105,000 x G for 60 minutes. The supernatant was used as the standard enzyme of 5-lipoxygenase.
A test tube was charged with a 50 mM phosphate buffer solution, 1.5 mM calcium chloride, 20 µM indomethacin, 18 mM glutathione, 6 mM ATP, 10 µM arachidonic acid, the obtained standard enzyme, and an ethanol solution of cis-(6)-shogaol, to a total volume of 0.6 ml and a final concentration of 5, 1 or 0.5 µM, and a reaction was carried out at 37°C for 10 minutes. […] The amount of 5-HETE in the liquid measured by the high-speed liquid chromatography [column = TSK-gel ODS-80TM (supplied by Toso), moving phase = acetonitrile/water/ acetic acid (60/40/0.02), flow rate = 1 ml/min, detection = ultraviolet ray (235 nm)], and the obtained value was designated as the enzyme activity. The inhibition ratio at each concentration was calculated by the following formula, and the concentration giving an inhibition ratio of 50% (hereinafter referred to as "IC₅₀") was determined. […]

[4] = target: cyclooxygenase; test: Cyclooxygenase-inhibiting action (PGE2 formation, rabbit kidney marrow microsome fraction); type: biochemical; conditions: cyclooxygenase from rabbit kidney marrow microsomes, [1-14C] arachidonic acid, 37°C 15 minutes; tested at 40, 20, 10 or 5 µM
Description: To 7.0 g of rabbit kidney marrow was added 60 ml of a 0.1M phosphate buffer solution (pH 7.5) containing 1 mM glutathione, and the mixture was homogenized by using a polytrone. The homogenate was subjected to the centrifugal separation under. 105,000 x G for 60 minutes to obtain a microsome fraction, and the fraction was dissolved in 7 ml of a 0.1M phosphate buffer solution (pH 7.5) containing 1 mM glutathione to obtain a standard enzyme of cyclooxygenase.
To 15 µl of the obtained standard enzyme were added 4 mM glutathione, 10 mM tryptophan, 0.25 µM hemoglobin, and a phosphate buffer solution (pH 7.5), each concentration being the final concentration, and [1-¹⁴C] arachidonic acid (5 x 10⁴ dpm) and cis-(6)-shogaol were added to a final concentration of 40, 20, 10 or 5 µM and a total volume of 200 µl. Incubation was carried out at 37 °C for 15 minutes, and 1N hydrochloric acid was added to stop the reaction. Prostaglandin E₂ (PGE₂) was added as the carrier and the reaction product was extracted with 2 ml of ether. […] Coloration was effected with an iodine vapor, the portion corresponding of […] was scratched out, and the radioactivity of PGE₂ was measured by a liquid scintillation counter. The inhibition ratio at each concentration was calculated according to the following formula, and the 1C₅₀ was determined. […]

[5] = system: male mice of the ICR line; test: Acute toxicity test; conditions: mouse, in vivo, po, 500 mg/kg
Description: as §1

In the case of `CCCCC/C=C/C(=O)CCc1ccc(O)c(OC)c1` [trans-(6)-shogaol, 1(4-hydroxy-3-methoxyphenyl)-(E)-4-decen-3-one], the “growth inhibited, balb/c 3T3 cells the growth of which was promoted by EGF” value ([1]; Experiment 1: 1 µg/25 µl/well compound, 5 ng/25 µl/well EGF) is reported as 52.7%, the LD50 ([2]; iv) is reported as 50.9 mg/kg and the LD50 ([2]; oral administration, Litchfield-Wilcoxon method, male ICR mice, read-out: LD50) is reported as 687 mg/kg.

In the case of `CCCCC/C=C\C(=O)CCc1ccc(O)c(OC)c1` [cis-(6)-shogaol], the “growth inhibited, balb/c 3T3 cells the growth of which was promoted by EGF” value ([1]; Experiment 4: 0.5 µg/12.5 µl/well compound, 50 pg/25 µl/well mouse EGF) is reported as 63.9%, the IC50 [3] is reported as 830 nM and the IC50 [4] is reported as 11.7 µM. For the same compound, the mortality [5] was “none of the mice died”.

From patent EP0334967B1, “KERATOSIS-TREATING AGENT” (priority 1987, dated 1989)
